{
  "source": "patent US4218443A",
  "about": "“Polyether ionophores as antiobesity and hypotriglyceridemic agents” (Hoffmann-La Roche Inc., priority 1979, dated 1980)",
  "key": {"[1]": {"biological_target": "T1, pancreatic lipase (Rattus norvegicus, UniProt P27657)", "T1 construct": "stimulated to release pancreatic proteins by addition of 10^-5 M carbachol; from tissue; host or cells: pancreatic lobules of fasted Charles River female rats; released pancreatic juice, centrifuged", "T1 sequence (P27657 17-465)": "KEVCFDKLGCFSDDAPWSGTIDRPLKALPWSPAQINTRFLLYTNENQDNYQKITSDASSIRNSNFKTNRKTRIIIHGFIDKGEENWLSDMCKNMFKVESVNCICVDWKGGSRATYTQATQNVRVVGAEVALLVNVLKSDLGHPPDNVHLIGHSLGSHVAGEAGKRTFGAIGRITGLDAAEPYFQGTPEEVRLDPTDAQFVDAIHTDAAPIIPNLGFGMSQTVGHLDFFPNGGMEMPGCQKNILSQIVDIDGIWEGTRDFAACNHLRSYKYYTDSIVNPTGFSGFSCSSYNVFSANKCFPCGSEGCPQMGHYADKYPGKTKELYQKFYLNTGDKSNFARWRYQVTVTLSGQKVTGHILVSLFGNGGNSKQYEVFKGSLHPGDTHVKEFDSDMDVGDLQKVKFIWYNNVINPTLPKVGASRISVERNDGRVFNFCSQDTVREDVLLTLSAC", "assay": "In vitro pancreatic lipase screen ([14C]-triolein assay)", "type": "biochemical", "settings": "read-out: Pancreatic Lipase Activity I50", "protocol": "The method for assaying pacreatic lipase in vitro using [^14 C]-triolein was based on the method of Garfinkel and Schotz for lipoprotein lipase, [A. S. Garfinkel and M. C. Schotz (1972). […] Glycerol tri[1-^14 C]oleate (32 mM) was emulsified in 0.2 M Tris-HCl pH 8 containing 0.15 M NaCl, bovine serum albumin (15 mg/ml) and sodium taurocholate (1.4 mM) by sonication for three, one min intervals at 80 watts. Final assay volume was 1.0 ml. The reaction was initiated by the addition of enzyme and was allowed to proceed for 10 min. The reaction was linear for up to 20 min. The liberated free fatty acids were extracted into 0.1 M KOH and quantitated in a liquid scintillation counter using 2,5-bis-2-(5-tertbutylbenzoxazolyl)-tniophene (BBOT) scintillation fluid (Yorktown Research, South Hackensack, N.J.).\nIonophores were added to the above assay as solutions in either 90% ethanol or water, pH 8; 90% ethanol had no effect on the enzyme activity assayed by either method."}, "[2]": {"test_system": "hepatic fatty acid synthesis", "assay": "In vivo hepatic fatty acid synthesis in meal-fed rats", "parameters": "species or system Charles River rat", "settings": "sodium salt, mean ± SE", "protocol": "In the following examples, female rats (Charles River CD strain, 180-200 g) were housed individually in wire bottom cages in a temperature (22°) and light (12 hr light and 12 hr dark) regulated room. They had free access to Purina Rodent Chow and water."}, "[3]": {"biological_target": "rat epididyml lipoprotein lipase (Rattus norvegicus, UniProt Q06000)", "sequence (Q06000 28-474)": "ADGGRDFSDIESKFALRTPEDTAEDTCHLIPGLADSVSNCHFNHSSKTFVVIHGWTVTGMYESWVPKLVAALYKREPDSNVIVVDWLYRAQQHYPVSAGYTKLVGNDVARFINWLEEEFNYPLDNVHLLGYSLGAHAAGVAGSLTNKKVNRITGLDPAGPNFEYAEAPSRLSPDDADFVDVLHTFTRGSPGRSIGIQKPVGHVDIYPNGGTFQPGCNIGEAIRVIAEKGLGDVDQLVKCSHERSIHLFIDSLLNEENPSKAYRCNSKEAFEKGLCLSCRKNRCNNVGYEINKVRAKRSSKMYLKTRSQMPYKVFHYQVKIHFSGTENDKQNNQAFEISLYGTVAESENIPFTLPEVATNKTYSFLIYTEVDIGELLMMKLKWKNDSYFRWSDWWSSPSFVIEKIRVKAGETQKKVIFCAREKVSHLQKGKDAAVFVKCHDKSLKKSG", "settings": "read-out: I50 lipoprotein lipase; rat epididyml lipoprotein lipase in vitro", "procedure": "Acetone powders of Zucker rat epididyml adipose tissue were the source of lipoprotein lipase and were prepared by the method of Garfinkel and Schotz, [A. S. Garfinkel and M. C. […] The adipose tissue was removed quickly and immediately homogenized in acetone (15 ml per gram of adipose tissue) in a Waring Blender at high speed for one minute, then filtered quickly through a coarse fritted glass funnel. The extract was washed twice with acetone (3 ml per gram of adipose tissue), then washed two more times with anhydrous ethyl ether (3 ml per gram adipose tissue). The powder was dried under vacuum for one hour, weighed and stored desiccated at -70° C. Approximately 0.013 g acetone powder was obtained per gram of epididyml adipose tissue. The lipoprotein lipase was extracted from the acetone powder into 0.05 M NH4 OH-NH4 Cl buffer, pH 8.6. The extracts were prepared by homogenizing the acetone powder in buffer in a TenBroeck glass tissue grinder in ice. The homogenate was centrifuged at 2,000×g for 20 min to remove insoluble material.\nIonophores were added to the above assays as solutions in either water or DMSO."}, "[4]": {"test_system": "female Charles River rats", "assay": "Chronic 31 day dietary admix experiment", "type": "in vivo, Charles River rat", "settings": "31 days; for Body Weight Gain / Body Weight final / Fat Absorption / Food Consumption / Food Efficiency / Serum Cholesterol / Serum Free Fatty Acids / Serum Glucose / Serum IRI (immunoreactive insulin) / Serum Triglycerides: sodium salt, mean ± SE", "excerpt": "Faster enzymatic procedure for serum triglycerides, Clinical Chemistry, 21: 1983-1985], cholesterol, [C. C. Allain, L. Poon, S. G. Chan, W. Richmond and P. Fu (1974). Enzymatic determination of total serum cholesterol, Clinical Chemistry, 20: 470-475] and glucose, [R. Konig, H. Dauwalder and R. Richterich (1971). Vergleichende Bestimmungen der Uringlucosekonzentration mit der Polarimetrie und einer enzymatischen Methode (Hexokinase/Glucose-6-Phosphat-Dehydrogenase), Schweiz. Med. Wschr., 101: 860-866], by enzymatic procedures and free fatty acids, [C. Dalton and C. Kowalski (1967). Automated colorimetric determination of free fatty acids in biologic fluids, Clinical Chemistry, 13: 744-751], by a Colorimetric procedure. Serum immunoreactive insulins were determined by radioimmunoassay, [G. F. Bryce, P. R. Johnson, A. C. Sullivan, J. S. Stern (1977). Insulin and glucagon: Plasma levels and pancreatic release in the gentically obese Zucker rat, Hormone and Metabolic Research, 9: 366-370].\nFIG. 2 sets forth body weight gain values of rats matched for initial body weight and pair fed 10% corn oil diet without dinitrodescarboxylasalocid and three groups of pair fed rats receiving 60, 120 and 240 mg/kg of dinitrodescarboxylasalocid as dietary admixes for 31 days respectively. […] Tables 12 and 13 describe the effects of dinitrodescarboxylasalocid (150 mg/kg b.i.d. by oral intubation) in genetically obese and lean Zucker rats for 21 days."}, "[5]": {"test_system": "intestinal absorption of triglycerides (corn oil)", "assay": "In vivo absorption of triglycerides (corn oil absorption)", "settings": "Experiment 2, sodium"}},
  "data": [
    {"compound": "CC[C@@H](C(=O)[C@@H](C)[C@@H](O)[C@H](C)CCc1c([N+](=O)[O-])cc(C)c(O)c1[N+](=O)[O-])[C@H]1O[C@](CC)([C@H]2CC[C@](O)(CC)[C@H](C)O2)C[C@@H]1C", "note": "[Dinitrodescarboxylasalocid]", "values": [
      {"measurement": "IC50", "setting": "[1]", "result": 400, "unit": "µM"},
      {"measurement": "Fatty Acid Synthesis 3H2O converted", "setting": "[2]; 60 mg/kg i.p.", "result": "12.5 ± 2.1 μmoles per 1 g liver in 30 min"},
      {"measurement": "Fatty Acid Synthesis [14C]alanine converted", "setting": "[2]; 60 mg/kg i.p.", "result": "208 ± 42 nmoles per 1 g liver in 30 min"},
      {"measurement": "Fatty Acid Synthesis 3H2O converted", "setting": "[2]; Experiment 1, 240 mg/kg p.o.", "result": "17.1 ± 3.5 μmoles per 1 g liver per 30 mi"},
      {"measurement": "Fatty Acid Synthesis [14C]alanine converted", "setting": "[2]; Experiment 1, 240 mg/kg p.o.", "result": "250 ± 87 nmoles per 1 g liver per 30 mi"},
      {"measurement": "Fatty Acid Synthesis 3H2O converted", "setting": "[2]; Experiment 2, 60 mg/kg p.o.", "result": "17.0 ± 3.1 μmoles per 1 g liver per 30 mi"},
      {"measurement": "Fatty Acid Synthesis [14C]alanine converted", "setting": "[2]; Experiment 2, 60 mg/kg p.o.", "result": "711 ± 130 nmoles per 1 g liver per 30 mi"},
      {"measurement": "Fatty Acid Synthesis 3H2O converted", "setting": "[2]; Experiment 2, 120 mg/kg p.o.", "result": "18.7 ± 2.1 μmoles per 1 g liver per 30 mi"},
      {"measurement": "Fatty Acid Synthesis [14C]alanine converted", "setting": "[2]; Experiment 2, 120 mg/kg p.o.", "result": "696 ± 80 nmoles per 1 g liver per 30 mi"},
      {"measurement": "Fatty Acid Synthesis 3H2O converted", "setting": "[2]; Experiment 2, 240 mg/kg p.o.", "result": "12.6 ± 1.4 μmoles per 1 g liver per 30 mi"},
      {"measurement": "Fatty Acid Synthesis [14C]alanine converted", "setting": "[2]; Experiment 2, 240 mg/kg p.o.", "result": "510 ± 64 nmoles per 1 g liver per 30 mi"},
      {"measurement": "IC50", "setting": "[3]", "result": 270, "unit": "µM"},
      {"measurement": "Body Weight Gain", "setting": "[4]; 60 mg/kg dietary admix", "result": "64 ± 6", "unit": "g"},
      {"measurement": "Body Weight final", "setting": "[4]; 60 mg/kg dietary admix", "result": "255 ± 8", "unit": "g"},
      {"measurement": "Fat Absorption", "setting": "[4]; 60 mg/kg dietary admix", "result": "95.6 ± 0.6", "unit": "%"},
      {"measurement": "Food Consumption", "setting": "[4]; 60 mg/kg dietary admix", "result": "17.4 ± 0.6", "unit": "g/day"},
      {"measurement": "Food Efficiency", "setting": "[4]; 60 mg/kg dietary admix", "result": "0.115 ± 0.010", "unit": "g gained/g consumed"},
      {"measurement": "Serum Cholesterol", "setting": "[4]; 60 mg/kg", "result": "106 ± 6", "unit": "mg/100 ml"},
      {"measurement": "Serum Free Fatty Acids", "setting": "[4]; 60 mg/kg", "result": "469 ± 46", "unit": "μeq/l"},
      {"measurement": "Serum Glucose", "setting": "[4]; 60 mg/kg", "result": "173 ± 5", "unit": "mg/100 ml"},
      {"measurement": "Serum IRI (immunoreactive insulin)", "setting": "[4]; 60 mg/kg", "result": "1.8 ± 0.2", "unit": "ng/mL"},
      {"measurement": "Serum Triglycerides", "setting": "[4]; 60 mg/kg", "result": "73 ± 3", "unit": "mg/100 ml"},
      {"measurement": "Body Weight Gain", "setting": "[4]; 120 mg/kg dietary admix", "result": "66 ± 8", "unit": "g"},
      {"measurement": "Body Weight final", "setting": "[4]; 120 mg/kg dietary admix", "result": "256 ± 10", "unit": "g"},
      {"measurement": "Fat Absorption", "setting": "[4]; 120 mg/kg dietary admix", "result": "95.8 ± 0.6", "unit": "%"},
      {"measurement": "Food Consumption", "setting": "[4]; 120 mg/kg dietary admix", "result": "19.0 ± 0.5", "unit": "g/day"},
      {"measurement": "Food Efficiency", "setting": "[4]; 120 mg/kg dietary admix", "result": "0.109 ± 0.014", "unit": "g gained/g consumed"},
      {"measurement": "Serum Cholesterol", "setting": "[4]; 120 mg/kg", "result": "88 ± 6", "unit": "mg/100 ml"},
      {"measurement": "Serum Free Fatty Acids", "setting": "[4]; 120 mg/kg", "result": "425 ± 45", "unit": "μeq/l"},
      {"measurement": "Serum Glucose", "setting": "[4]; 120 mg/kg", "result": "164 ± 5", "unit": "mg/100 ml"},
      {"measurement": "Serum IRI (immunoreactive insulin)", "setting": "[4]; 120 mg/kg", "result": "2.0 ± 0.2", "unit": "ng/mL"},
      {"measurement": "Serum Triglycerides", "setting": "[4]; 120 mg/kg", "result": "64 ± 5", "unit": "mg/100 ml"},
      {"measurement": "Body Weight Gain", "setting": "[4]; 240 mg/kg dietary admix", "result": "51 ± 3", "unit": "g"},
      {"measurement": "Body Weight final", "setting": "[4]; 240 mg/kg dietary admix", "result": "246 ± 4", "unit": "g"},
      {"measurement": "Fat Absorption", "setting": "[4]; 240 mg/kg dietary admix", "result": "88.1 ± 1.7", "unit": "%"},
      {"measurement": "Food Consumption", "setting": "[4]; 240 mg/kg dietary admix", "result": "17.6 ± 0.5", "unit": "g/day"},
      {"measurement": "Food Efficiency", "setting": "[4]; 240 mg/kg dietary admix", "result": "0.083 ± 0.011", "unit": "g gained/g consumed"},
      {"measurement": "Serum Cholesterol", "setting": "[4]; 240 mg/kg", "result": "155 ± 9", "unit": "mg/100 ml"},
      {"measurement": "Serum Free Fatty Acids", "setting": "[4]; 240 mg/kg", "result": "423 ± 61", "unit": "μeq/l"},
      {"measurement": "Serum Glucose", "setting": "[4]; 240 mg/kg", "result": "155 ± 8", "unit": "mg/100 ml"},
      {"measurement": "Serum IRI (immunoreactive insulin)", "setting": "[4]; 240 mg/kg", "result": "1.7 ± 0.2", "unit": "ng/mL"},
      {"measurement": "Serum Triglycerides", "setting": "[4]; 240 mg/kg", "result": "51 ± 4", "unit": "mg/100 ml"},
      {"measurement": "Body weight gain compared to controls and the respective pair-fed groups (FIG. 2)", "setting": "[4]; 60, 120 and 240 mg/kg dietary admix", "result": "reduced significantly only at the 240 mg/kg dose"},
      {"measurement": "Area under curve (corn oil absorption)", "setting": "[5]; 56 mg/kg p.o.", "result": 1213},
      {"measurement": "Area under curve, % of control", "setting": "[5]; 56 mg/kg p.o.", "result": "86 % of control"},
      {"measurement": "Area under curve (corn oil absorption)", "setting": "[5]; 120 mg/kg p.o.", "result": 1072},
      {"measurement": "Area under curve, % of control", "setting": "[5]; 120 mg/kg p.o.", "result": "76 % of control"},
      {"measurement": "Area under curve (corn oil absorption)", "setting": "[5]; 240 mg/kg p.o.", "result": 564},
      {"measurement": "Area under curve, % of control", "setting": "[5]; 240 mg/kg p.o.", "result": "40 % of control"}
    ]}
  ]
}
